US9340577B2, “HLA binding motifs and peptides and their uses” (priority 1992, dated 2016)
Where two headings read alike, the source gives them in different places. No end group written: not given here.

What was measured:
Assay in all cases: biochemical
DR1 (DRB1*0101) = DR1 (DRB1*0101) (Homo sapiens, UniProt P01903+P01911, A100R/D57E/F55L/F60I/F76Y/I96L/L162R/M171V/P40L/Q125E/R42F/V115G/Y59C); assay type: binding
DRB1*0301 = DRB1*0301 (Homo sapiens, UniProt P01903+P01911, A100K/A102G/A103R/A169T/F55Y/I96L/K41T/L162R/M171V/P40S/Q125H/Q178H/Q39Y/R42S/S66N/T106N/T262R/W38E/Y61H); assay type: binding
DRB1*0405 = DRB1*0405 (Homo sapiens, UniProt P01903+P01911, A100R/A169T/D86S/F76Y/I96L/K127E/L162R/M171V/N62H/P40V/Q125Y/R42H/S133A/S149N/S66Y/V115G/V209L/W38E); assay type: binding
DRB1*0802 = DRB1*0802 (Homo sapiens, UniProt P01903+P01911, A100R/A103L/A169T/F76Y/H45Y/I96F/K41T/L162R/M171V/P40S/Q125H/Q178H/Q39Y/Q99D/R218S/R42G/S66Y/V115G/W38E); assay type: binding
DRB1*0901 = DRB1*0901 (Homo sapiens, UniProt P01903+P01911, A100R/A103E/D57H/D86V/F55Y/F60I/F76Y/I96F/K127E/L162R/M171V/P40D/Q125H/Q99R/R33Q/R42F/S133A/S66N/T210M/V115G/W38K/Y107V/Y59G/Y89S); assay type: binding
DRB1*1201 = DRB1*1201 (Homo sapiens, UniProt P01903+P01911, A100R/A169T/D57E/D86V/F55L/H45Y/K41T/L162R/M171V/P40S/Q125H/Q178H/Q39Y/Q99D/R42G/S66L/T262R/V114A/V67L/W38E/Y59H/Y61H/Y89S); assay type: binding
DRB1*1302 = DRB1*1302 (Homo sapiens, UniProt P01903+P01911, A100E/A169T/K41T/L162R/M171V/P40S/Q125H/Q178H/Q39Y/Q99D/R42S/S66N/T262R/V115G/W38E/Y61H); assay type: binding
DRB1*1501 = DRB1*1501 (Homo sapiens, UniProt P01903+P01911); assay type: binding
DRB4*0101 = DRB4*0101 (Homo sapiens, UniProt P01903+P13762, G164S); assay type: binding
DRB1*1101 = DRB1*1101 (Homo sapiens, UniProt P01903+P01911, A100R/A169T/A87E/I96F/K41T/L162R/M171V/P40S/Q125H/Q178H/Q39Y/Q99D/R42S/S66Y/T262R/V115G/W38E)
DRB5*0101 = DRB5*0101 (Homo sapiens, UniProt P01903+Q30154)
DR7 (DRB1*0701) = DR7 (DRB1*0701) (Homo sapiens, UniProt P01903+P01911, A100R/A102G/A103Q/D57E/D86V/E43K/F76Y/K127E/L162R/M171V/P40G/Q125H/Q99D/R33Q/R42Y/R54Q/S133A/S66F/T210M/V115G/Y107V/Y59L/Y89S); assay type: binding
DR4w4 (DRB1*0401) = DR4w4 (DRB1*0401) (Homo sapiens, UniProt P01903+P01911, A100K/A169T/F76Y/I96L/K127E/L162R/M171V/N62H/P40V/Q125Y/R42H/S133A/S149N/S66Y/V115G/V209L/W38E); assay type: binding

Chain of DRB1*1302 (P01903 26-254 limits assumed, other chains not shown): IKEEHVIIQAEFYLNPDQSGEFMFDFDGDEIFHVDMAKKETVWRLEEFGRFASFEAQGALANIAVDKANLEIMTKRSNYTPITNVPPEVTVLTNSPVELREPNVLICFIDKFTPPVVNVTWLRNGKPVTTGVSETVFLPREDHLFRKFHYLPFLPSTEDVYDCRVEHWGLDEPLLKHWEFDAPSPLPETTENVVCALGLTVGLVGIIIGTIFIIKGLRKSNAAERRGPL
Chain of DRB1*0301 (P01903 26-254 limits assumed, other chains not shown): as above
Chain of DRB1*1101 (P01903 26-254 limits assumed, other chains not shown): as above

Compound | IC50 (DR1 (DRB1*0101)) | IC50 (DRB1*0301) | IC50 (DRB1*0405) | IC50 (DRB1*0802) | IC50 (DRB1*0901) | IC50 (DRB1*1201) | IC50 (DRB1*1302) | IC50 (DRB1*1501) | IC50 (DRB4*0101) | IC50 (DRB1*1101; Binding affinity DRB1 *1101) | IC50 (DRB5*0101; Binding affinity DRB5 *0101) | IC50 (DR7 (DRB1*0701)) | IC50 (DR4w4 (DRB1*0401)) | IC50 (DRB1*1101) | IC50 (DRB5*0101)
PEWIQRLTIIQHGID [Peptide 89.0031] | 879 nM | 4380 nM | 131 nM | 187 nM | 4510 nM | 527 nM | 558 nM | 3420 nM | 3.3 nM | 596 nM | 240 nM | – | – | – | –
VDFIVNDNDYLTQAE [Peptide 90.0031] | 2830 nM | 42 nM | > 20000 nM | > 20000 nM | > 20000 nM | 17100 nM | 204 nM | > 20000 nM | 718 nM | > 20000 nM | > 20000 nM | 7280 nM | – | – | –
DRGVLILLLIRFKCG [Peptide 89.0099] | 20 nM | 470 nM | 3340 nM | 4730 nM | – | 711 nM | – | – | – | 1630 nM | 83 nM | 384 nM | 1480 nM | – | –
LLEFIDDSMENSIQA [Peptide 90.0077] | 500 nM | 518 nM | 534 nM | > 20000 nM | 6680 nM | > 20000 nM | > 20000 nM | 6120 nM | 734 nM | 7620 nM | > 20000 nM | > 20000 nM | – | – | –
HKAIELQMALKGLAQ [Peptide 90.0004] | 2.1 nM | 32 nM | 3310 nM | 38 nM | – | 293 nM | – | 6580 nM | 1 nM | 10 nM | 57 nM | – | 6.7 nM | – | –
KTLIKPATLYAHIQC [Peptide 89.0083] | 60 nM | 1220 nM | 841 nM | 231 nM | – | 422 nM | – | 654 nM | 51 nM | 35 nM | 5230 nM | 308 nM | – | – | –
ISEVYGDTPEWIQRQ [Peptide 90.0035] | > 20000 nM | 50 nM | 12800 nM | > 20000 nM | > 20000 nM | > 20000 nM | 6.9 nM | > 20000 nM | – | > 20000 nM | > 20000 nM | 6870 nM | > 20000 nM | – | –
QMFLGTVKIPPTVQI [Peptide 89.0188] | – | 160 nM | 616 nM | 503 nM | > 20000 nM | 553 nM | – | 208 nM | 13 nM | 474 nM | 4490 nM | 4650 nM | – | – | –
AQEVHNDAQVLHVLK [Peptide 90.0047] | 407 nM | 21 nM | > 20000 nM | – | 10200 nM | > 20000 nM | – | 2540 nM | – | 10700 nM | > 20000 nM | 7800 nM | 4530 nM | – | –
RETIEKLLSKLLCVS [Peptide 89.0006] | 199 nM | 13000 nM | 6170 nM | 652 nM | 6480 nM | 523 nM | 600 nM | 232 nM | – | 715 nM | 7070 nM | 187 nM | > 20000 nM | – | –
AFQVIELQMALETLN [Peptide 90.0024] | 29 nM | 1280 nM | 2100 nM | 4950 nM | – | 466 nM | 89 nM | 378 nM | 11 nM | 3340 nM | > 20000 nM | – | – | – | –
GERLEVDTELSPRLQ [Peptide 90.0048] | > 20000 nM | 15 nM | > 20000 nM | > 20000 nM | > 20000 nM | > 20000 nM | > 20000 nM | > 20000 nM | > 20000 nM | > 20000 nM | > 20000 nM | > 20000 nM | – | – | –
WQLIRLENAILFTAR [Peptide 90.0211] | 4.1 nM | 41 nM | 308 nM | 1840 nM | 2270 nM | 99 nM | 2.7 nM | 44 nM | 20 nM | – | 445 nM | 89 nM | – | – | –
CC(C)C[C@H](NC(=O)[C@@H](NC(=O)[C@H](Cc1c[nH]c2ccccc12)NC(=O)[C@H](CC(=O)O)NC(=O)[C@H](CCC(=O)O)NC(=O)[C@@H](NC(=O)[C@H](CCCCN)NC(=O)[C@H](Cc1ccc(O)cc1)NC(=O)[C@H](CCCNC(=N)N)NC(=O)[C@H](CO)NC(=O)[C@@H](N)CCC(N)=O)[C@@H](C)O)[C@@H](C)O)C(=O)N[C@@H](CCC(N)=O)C(=O)N[C@@H](CC(=O)O)C(=O)N[C@H](C(=O)N[C@@H](CS)C(=O)O)[C@@H](C)O [Peptide 90.0179] | – | 335 nM | 1590 nM | 585 nM | 1970 nM | 193 nM | 71 nM | 345 nM | – | – | – | 6500 nM | 71 nM | 2090 nM | > 20000 nM
GKSYFGMSLIQFLKG [Peptide 89.0075] | 14 nM | 8830 nM | 1310 nM | 1560 nM | 73 nM | 499 nM | – | – | 372 nM | 2960 nM | 411 nM | – | 456 nM | – | –
LKVLIQPYSIYAHLQ [Peptide 89.0098] | – | 191 nM | 2240 nM | 4770 nM | 12800 nM | 237 nM | 677 nM | 79 nM | – | 681 nM | 993 nM | 26 nM | 524 nM | – | –
VTVFTFPHAFPFDKN [Peptide 89.0092] | – | > 20000 nM | 10200 nM | – | 33 nM | 131 nM | > 20000 nM | 63 nM | 1500 nM | – | 226 nM | 5.5 nM | – | – | –
TGWFEVEAVIERRTG [Peptide 90.0075] | 17100 nM | 17 nM | 6110 nM | – | > 20000 nM | > 20000 nM | > 20000 nM | > 20000 nM | > 20000 nM | – | 362 nM | 4930 nM | – | – | –
ETCMLIEPPKLRSSV [Peptide 89.0084] | 35 nM | 359 nM | 906 nM | 1350 nM | 5120 nM | 708 nM | 481 nM | – | 48 nM | 123 nM | – | 756 nM | – | – | –
MNYVVWDSIYYITET [Peptide 90.0214] | 2610 nM | 151 nM | 452 nM | > 20000 nM | 888 nM | 1140 nM | 17 nM | 3090 nM | – | 1620 nM | 18300 nM | 55 nM | – | – | –
PHAFPFDKNGNPVYE [Peptide 90.0106] | 517 nM | 930 nM | 7190 nM | > 20000 nM | – | 671 nM | 1390 nM | 2790 nM | – | > 20000 nM | > 20000 nM | 7120 nM | – | – | –
KIGMLDDATVPCWNY [Peptide 90.0040] | 4430 nM | 160 nM | > 20000 nM | > 20000 nM | > 20000 nM | 12700 nM | > 20000 nM | > 20000 nM | – | > 20000 nM | > 20000 nM | > 20000 nM | 490 nM | – | –
